This is an account of results in PMC10161675, “Study on the absolute configuration and biological activity of rotenoids from the leaves and twigs of Millettia pyrrhocarpa Mattapha, Forest & Hawkins, sp. Nov” (BMC Complementary Medicine and Therapies, 2023).

≈ marks a conversion by molar mass, not a printed value. Where only a bound is given, the exact number is not on record here.

As a reminder, the EC50 is the concentration giving half of the maximal effect. Broadly, the inhibition is how much of the control response was suppressed. What is called melting point is the temperature, or range, at which the solid turns liquid.

In series [1] the test system is V. cholera nonO1/nonO139 DMST 2873. The experiment in a line: Antibacterial activity (MIC/MBC). Format: cell-based, V. cholerae. The conditions noted are these: Vibrio cholerae; for MBC: read-out: Concentration of MBC; for MIC: read-out: Concentration of MIC. Here is the method:
(§1) The study on in vitro antibacterial activity was carried out against nine strains (S. aureus ATCC 25923 DMST 8840, E. aerogenes ATCC13048 DMST 8841, E. coli O157: H7 DMST 12743, E. coli Enterotoxigenic, ETEC DMST 30543, E. coli Enteropathogenic, EPEC DMST 30546, S. typhimurium ATCC 13311 DMST 562, S. flexneri DMST 4423, P. mirabilis DMST 8212, and V. cholera nonO1/nonO139 DMST 2873).

Series [2] concerns E. coli O157: H7 DMST 12743. The series can be described thus: Antibacterial activity (MIC/MBC). In kind it is cell-based. Conditions: Escherichia coli; for MBC: read-out: Concentration of MBC; for MIC: read-out: Concentration of MIC. Here is the method:
as §1

A further series deals with P. mirabilis DMST 8212. The experiment in a line: microbe, parasite or virus in culture. Format: cell-based. Conditions: Proteus mirabilis; for MBC: DMST8212, read-out: Concentration of MBC; for MIC: DMST8212, read-out: Concentration of MIC. The method, then:
as §1

The test system of series [3] is E. coli Enteropathogenic, EPEC DMST 30546. The experiment in a line: microbe, parasite or virus in culture. Format: cell-based. Conditions: Escherichia coli; for MBC: read-out: Concentration of MBC. The method, then: as §1
Series [4] has as its system E. coli Enterotoxigenic, ETEC DMST 30543. The series can be described thus: microbe, parasite or virus in culture. The conditions noted are these: Escherichia coli; for MBC: read-out: Concentration of MBC. In kind it is cell-based. Here is the method: as §1
Series [5] relates to E. aerogenes ATCC13048 DMST 8841. The experiment in a line: microbe, parasite or virus in culture. The conditions noted are these: Klebsiella aerogenes; for MBC: read-out: Concentration of MBC; for MIC: read-out: Concentration of MIC. In kind it is cell-based. Here is the method:
as §1

The next series has as its system S. flexneri DMST 4423. The series can be described thus: microbe, parasite or virus in culture. Conditions: Shigella flexneri; for MBC: DMST4423, read-out: Concentration of MBC; for MIC: DMST4423, read-out: Concentration of MIC. In kind it is cell-based. The method, then:
as §1

The subject of series [6] is S. typhimurium ATCC 13311 DMST 562. The series can be described thus: microbe, parasite or virus in culture. Format: cell-based. The conditions noted are these: Salmonella enterica; for MBC: read-out: Concentration of MBC; for MIC: read-out: Concentration of MIC. Here is the method: as §1
For series [7], the system named is S. aureus ATCC 25923 DMST 8840. The experiment in a line: microbe, parasite or virus in culture. Format: cell-based. Conditions: Staphylococcus aureus; for MBC: ATCC25923, read-out: Concentration of MBC; for MIC: ATCC25923, read-out: Concentration of MIC. Here is the method: as §1
Series [8] relates to ΔTat/RevMC99 virus in 1A2 cells. The series can be described thus: Anti-syncytium (MC99 + 1A2) cell-based assay for anti-HIV-1. Conditions: Human immunodeficiency virus 1, 1A2, read-out: Anti-syncytium (MC99+1A2) EC50. The method, then:
(§2) Anti-HIV1-RT assays of the crude extracts and isolated compounds were evaluated according to the standard methods described in previous literature. Cell-based assays for anti-HIV-1 RT of the crude extracts and isolated compounds were evaluated according to the standard methods described in previous literature
Fig. 4 Anti-syncytium MC99 + 1A2 of crude extracts and pure compounds from leaves and twigs of M. Pyrrhocarpa. ^bAnti-syncytium (MC99 + 1A2) EC50 = dose of compound that reduced 50% syncytium formation by ΔTat/RevMC99 virus in 1A2 cells.

A further series addresses T1, HIV-1 RT (Human immunodeficiency virus type 1 group M subtype B, UniProt P04585).
T1 construct: For determination of IC50 in the HIV-1 RT assay
The experiment in a line: Anti-HIV1-RT assay. In kind it is biochemical. Conditions: read-out: Anti-HIV-1 RT (% Inhibition). The method, then:
as §2

In series [9] the test system is Hep G2 (Human hepatocellular carcinoma). The series can be described thus: Cytotoxicity assay. Format: cell-based. The conditions noted are these: listed as 6aS, 12aS, 12S-elliptinol (1). The text has this:
(§3) Cells line materials KKU-M213 (human cholangiocarcinoma) cells were kindly provided by Dr. Banchob Sripa from Liver Fluke and Cholangiocarcinoma Research Center, Department of Pathology, Faculty of Medicine, Khon Kean University. MMNK1 (human cholangiocyte) cells were obtained from the Japanese Collection of Research Bioresources Cell Bank (JCRB, Osaka, Japan). FaDu (human hypopharyngeal carcinoma), HT29 (human colorectal adenocarcinoma), MDA-MB-231 (human mammary gland/breast adenocarcinoma), SH-SY5Y (human neuroblastoma), A549 (human lung carcinoma), and HepG2 (human hepatocellular carcinoma) cell lines were obtained from the American Type Culture Collection (ATCC, Manassas, VA, USA).
(§4) Cytotoxicity assays of the crude extracts and isolated compounds were evaluated according to the standard methods described in previous literature.

Series [10] relates to A 549 (Human lung adenocarcinoma). The experiment in a line: Cytotoxicity assay. Format: cell-based. The conditions noted are these: A549.
Text: as §3, §4

In the case of `O=C(N[C@H](CO)[C@H](O)c1ccc([N+](=O)[O-])cc1)C(Cl)Cl` [Chloramphenicol, reference compound], the MBC came to 125 µg/mL (≈ 0.387 mM) in series [1]; 125 µg/mL (≈ 0.387 mM) in series [2]; 31.2 µg/mL (≈ 0.0966 mM) in the series on P. mirabilis DMST 8212; 125 µg/mL (≈ 0.387 mM) in series [5]; 125 µg/mL (≈ 0.387 mM) in the series with S. flexneri DMST 4423; 125 µg/mL (≈ 0.387 mM) in series [6]. Besides, the MBC in series [7] was 125 µg/mL (≈ 0.387 mM). Besides, the MIC (in series [1]; in series [2]; in the series with P. mirabilis DMST 8212; in series [3] (read-out: Concentration of MIC); in [4] (read-out: Concentration of MIC); in [5]) was less than 30 µg/mL each time. For the same compound, the MIC with S. flexneri DMST 4423 is less than 30 µg/mL; in series [6], less than 35 µg/mL; in series [7], less than 30 µg/mL.

As for `COc1cc2c(cc1OC)[C@H]1[C@H](O)c3ccc4occc4c3O[C@@H]1CO2` [Compound 1, 6aS, 12aS, 12S-elliptinol], the EC50 in [8] is 4.48 µM. Further, the inhibition at 200 µg/mL at HIV-1 RT stood at 0.03%. Moreover, the MBC (in series [1]; in [2]; in the series with P. mirabilis DMST 8212; in series [3]; in [4]; in [5]) was greater than 3000 µg/mL in each case. Besides, the MBC (in the series on S. flexneri DMST 4423; in series [6]; in [7]) was greater than 3000 µg/mL in each case. Moreover, the MIC (in [1]; in [2]; in the series with P. mirabilis DMST 8212; in series [5]; with S. flexneri DMST 4423; in [6]) was 3000 µg/mL (≈ 8.47 mM) in each case. Further, the MIC in [7] was determined as 3000 µg/mL (≈ 8.47 mM). The “cytotoxicity ED50” value in [9] worked out at 3.97 µg/mL; in series [10], 2.27 µg/mL.

`COc1ccc2c(c1)O[C@@H]1COc3cc(OC)c(OC)cc3[C@H]1[C@@H]2O` [Compound 2, 6aS, 12aS, 12S-munduserol]: the melting point lay within 240 to 241 °C. Moreover, the EC50 in [8] stood at 4.99 µM. At HIV-1 RT, the inhibition at 200 µg/mL amounted to 8.98%. In [1], the MBC was greater than 3000 µg/mL and the MIC is 3000 µg/mL (≈ 8.71 mM). In addition, in [2], the MBC is greater than 3000 µg/mL and the MIC came out at 3000 µg/mL (≈ 8.71 mM). For the same compound, in the series with P. mirabilis DMST 8212, the MBC is greater than 3000 µg/mL and the MIC was determined as 3000 µg/mL (≈ 8.71 mM). For the same compound, in series [3], the MBC is greater than 3000 µg/mL. The MBC in series [4] is greater than 3000 µg/mL. For the same compound, in series [5], the MBC is greater than 3000 µg/mL and the MIC is 3000 µg/mL (≈ 8.71 mM). For the same compound, in the series on S. flexneri DMST 4423, the MBC was greater than 3000 µg/mL and the MIC worked out at 3000 µg/mL (≈ 8.71 mM). Moreover, in [6], the MBC was greater than 3000 µg/mL and the MIC stood at 3000 µg/mL (≈ 8.71 mM). Moreover, in series [7], the MBC is greater than 3000 µg/mL and the MIC stood at 3000 µg/mL (≈ 8.71 mM).

Compound `COc1ccc2c(=O)c3c(oc2c1)COc1cc(OC)c(OC)cc1-3` [Compound 3, dehydromunduserone] returned a melting point of 202 to 204 °C. Further, in series [8], the EC50 amounted to 91 µM. The inhibition at 200 µg/mL at HIV-1 RT came to 0%. Also, in series [1], the MBC was greater than 3000 µg/mL and the MIC worked out at 3000 µg/mL (≈ 8.81 mM). In addition, in [2], the MBC is greater than 3000 µg/mL and the MIC was found to be 3000 µg/mL (≈ 8.81 mM). Also, in the series with P. mirabilis DMST 8212, the MBC is greater than 3000 µg/mL and the MIC worked out at 3000 µg/mL (≈ 8.81 mM). Besides, the MBC in series [3] was greater than 3000 µg/mL. For the same compound, the MBC in [4] was greater than 3000 µg/mL. Besides, in [5], the MBC is greater than 3000 µg/mL and the MIC was determined as 3000 µg/mL (≈ 8.81 mM). Also, in the series with S. flexneri DMST 4423, the MBC was greater than 3000 µg/mL and the MIC was 3000 µg/mL (≈ 8.81 mM). In series [6], the MBC is greater than 3000 µg/mL and the MIC came to 3000 µg/mL (≈ 8.81 mM). For the same compound, in series [7], the MBC is greater than 3000 µg/mL and the MIC is 3000 µg/mL (≈ 8.81 mM).
